From patent US20190144499A1, “PHENYL P[…], AND MANUFACTURING METHOD AND PHARMACEUTICAL APPLICATION THEREOF” (Jiangsu Hengrui Medicine Co., Ltd., priority 2016, published 2019)
Where a SMILES comes first, the peptide text is derived from it. [ ]: non-standard residue; d: D form. The star is where a group is joined. Piperidin1yl(4-NH2,4-COOH) = NC1(C(=O)O)CCN(*)CC1; N(Indan-2-yl)Gly = O=C(O)CNC1Cc2ccccc2C1; Gly(NCH2CH2Ph) = O=C(O)CNCCc1ccccc1; Morpholide = C1CN(*)CCO1

Experiments:
[1] = target: T1, human KOR (h-KOR) receptors (Homo sapiens, UniProt P41145); experiment: h-KOR agonist activity test (cAMP/CRE-luciferase reporter in HEK293/h-KOR/CRE cells); type: cell-based; settings: Forskolin, 4 hours, luciferase chemiluminescence, read-out: EC50 on agonizing h-KOR receptor and affecting cAMP levels
T1 construct: expressed in transfected cells
T1 sequence (P41145 whole entry): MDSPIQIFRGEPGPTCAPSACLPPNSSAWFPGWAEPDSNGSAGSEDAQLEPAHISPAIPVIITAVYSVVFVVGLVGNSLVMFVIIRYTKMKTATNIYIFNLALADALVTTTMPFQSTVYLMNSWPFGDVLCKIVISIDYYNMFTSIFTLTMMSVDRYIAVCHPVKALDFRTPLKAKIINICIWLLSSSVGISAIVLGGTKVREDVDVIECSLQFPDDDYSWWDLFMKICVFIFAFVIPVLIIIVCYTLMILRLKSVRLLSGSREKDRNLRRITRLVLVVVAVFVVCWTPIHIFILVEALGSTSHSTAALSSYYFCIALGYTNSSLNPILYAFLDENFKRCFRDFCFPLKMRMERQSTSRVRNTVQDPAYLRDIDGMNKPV
Excerpt: The objective of this experiment is to determine the agonistic effect of the compounds of the present invention on human KOR (h-KOR) receptors, and to evaluate the in vitro activity of the compounds according to the values of EC50.
The compounds of the present invention can activate h-KOR receptor, thereby reducing intracellular cAMP levels. The second messenger cAMP enters the nucleus and binds to the CRE of the DNA, thereby initiating the expression of the downstream luciferase. Luciferase reacts with its substrate to emit fluorescence, and the measured fluorescence signals reflect the agonistic activity of the compounds.
The activity of the test example compounds on agonizing h-KOR and affecting downstream cAMP levels was tested by the following method.
KOR/pcDNA3.1 (+) and CRE/pGL4.29 were transferred into HEK293 cells. G418 and hygromycin were added into the culture medium, and HEK293/KOR/CRE monoclonal cell lines were screened in a 96-well cell culture plate.
HEK293/h-KOR/CRE monoclonal cells were cultured in a DMEM/high glucose medium (10% FBS, 1 mg/ml G418, 200 μg/ml hygromycin, mixed uniformly), and passaged every 3 days. On the day of the experiment, a cell suspension was prepared with a fresh cell medium, added to a 96 well plate (BD, #356692) with 20,000 cells/well, and incubated in 5% CO2 at 37° C. On the second day, the compound was dissolved in pure DMSO at a concentration of 20 mM, then formulated with DMSO to a first concentration of 200 nM and diluted in 3 fold concentration gradient to 8 concentrations. 90 μl of DMSO were added to blank and control wells. The compound solution was diluted 20-fold with DMEM/hyperglucose (SH30243.01B, Hyclone) medium containing […]. The cell culture plates inoculated on the first day were taken out, and 10 μl of the diluted drug or the control (0.5% DMSO) was added to each well. The plate was gently shaken, and placed at 37° C. for 4 hours. In a 96-well cell culture plate, 100 μl of luciferase assay solution (Promega, # E6110) was added to each well. The plate was placed for 5 minutes at room temperature. The chemiluminescence value was measured using Victor 3.0. The EC50 values of the compounds were calculated using Graphpad Prism software based on each concentration of the compound and the corresponding signal value.
The activity of the compounds of the present invention on agonizing h-KOR and affecting downstream cAMP levels was determined by the above test, and the EC50 values are shown in Table 1.1.

[2] = Pharmacokinetics assay in rats after intravenous administration; type: in vivo; settings: both sexes, Sprague-Dawley, rat, plasma, SD rats, 1 mg/kg; for Vd: read-out: Apparent Distribution Volume Vz; for AUC: read-out: Area Under Curve AUC; for clearance: read-out: Clearance CL; for half-life: read-out: Half-Life t1/2 (converted); for MRT: read-out: Mean Residence Time MRT
Description: (§1) Rats were used as test animals. The drug concentration in plasma at different time points was determined by LC/MS/MS after intravenous administration of the compounds of Examples 2, 5 and 8 to the rats. The pharmacokinetic behavior of the compounds of the present invention was studied and evaluated in SD rats.
12 Sprague-Dawley (SD) rats, half male and half female, were purchased from SINO-BRITISH SIPPR/BK LAB. ANIMAL LTD., CO, with License No.: SOCK (Shanghai) 2008-0016.
The appropriate amount of the test compounds was weighed, and added with 5% 5% DMSO+5% PEG400+90% normal saline successively.
After an overnight fast, 12 SD rats, half male and half female, were divided into 3 groups equally, and administered intravenously at a dose of an administration volume of 5 mL/kg.
(§2) In the venous group, blood (0.2 mL) was taken from the orbital sinus before administration and 0.25, 0.5, 1.0, 2.0, 4.0, 8.0, 11.0 and 24.0 hours after administration. The samples were stored in heparinized tubes, and centrifuged for 10 minutes at 3,500 rpm to separate the blood plasma. The plasma samples were stored at −20° C.
The concentration of the test compounds in SD rat plasma after intravenous administration was determined by LC-MS/MS.

[3] = test system: carrageenan inflammatory pain model in rats; experiment: Carrageenan-induced inflammatory pain in rats, plantar tenderness test (electronic Von Frey); type: in vivo, Wistar rats; settings: for threshold of tenderness: 30 minutes before detection, 4 hours after carrageenan, model group 7.6 g, blank control about 20 g
Description: A carrageenan inflammatory pain model in rats was established to evaluate the therapeutic effect of KOR agonists on inflammatory pain in rats.
Male Wistar rats were purchased from Shanghai Slac Laboratory Animal Co., Ltd. (Shanghai, China, Certificate No. 2015000513408, License No. SCXK (Shanghai) 2012-0002). The rats were 150-180 g, and fed at 5/cage, in a condition of 12/12 hours light/dark cycle adjustment, constant temperature of 23±1° C., humidity of 50˜60%, and free access to food and water. After purchase, the animals adapted to this condition for 7 days before the experiment was started.
1% λ-Carrageenan was placed in physiological saline, and stirred overnight to form a jelly-like suspension.
The experimental method was modified in accordance with the method of Document 1 (Kazunari Nakao et al.). Before inflammatory pain experiment, rats were randomly divided into the following groups according to body weight: blank control group, model group, Example 5-0.1 mg/kg group, and Example 5-0.3 mg/kg group. There were 8 rats in each group. Inflammatory pain model was made in Wistar rat footpads that were subcutaneously injected with 1% carrageenan (100 μl). After 4 hours, the rats were subjected to a plantar tenderness test to evaluate the mechanical pain threshold. Single tail vein administration of the drug (1 ml/kg) was carried out 30 minutes before detection, and the control group and the model group were given corresponding solvents.
Electronic Von Frey: UGO BASILE, type 38450.
The experimental data were expressed as mean±standard deviation (S.D.). Statistical comparisons were performed using the excel software t test.

[4] = Pharmacokinetics assay in dogs after intravenous administration; type: in vivo; settings: male, dog, plasma, Beagle dogs, 0.3 mg/kg
Description: as §1, with “Beagle dogs” for “Rats”, “compound” for “compounds”, “Example” for “Examples 2,”, “5” for “5 and 8”, “Beagle dogs.” for “rats.”, “Beagle dogs.” for “SD rats.”
3 Beagle dogs in one group, male, were purchased from Medicilon Pharmaceutical Technology (Shanghai) Co., Ltd.
The appropriate amount of the test compound was weighed, and added with 100% normal saline.
After an overnight fast, 3 Beagle dogs in one group, male, were administered intravenously at a dose of an administration volume of 2 mL/kg.
as §2, with “(1” for “(0.2”, “jugular vein” for “orbital sinus”, “5 minutes, 15 minutes,” for “0.25,”, “12.0” for “11.0”, “−80°” for “−20°”
The concentration of the test compound in Beagle dog plasma after intravenous administration was determined by LC-MS/MS.

Row | SMILES | EC50 [1] [nM] | Vd [2] [L/kg] | AUC [2] [ng·h/mL] | clearance [2] [mL/min/kg] | half-life [2] [min] | MRT [2] [min] | further results
1 | CC(C)C[C@@H](NC(=O)[C@@H](Cc1ccccc1)NC(=O)CN[C@H]1C[C@@H]1c1ccccc1)C(=O)N[C@H](CCCCN)C(=O)N1CCOCC1 [Example 6, (R)—N—((R)-6-amino-1-morpholino-1-oxohexan-2-yl)-4-methyl-2-((R)-3-phenyl-2-(2-(((1S,2R)-2-phenylcyclopropyl)amino)acetamido)propanamido)pentanamide] | 0.079 | – | – | – | – | – | –
2 | CC(C)C[C@@H](NC(=O)[C@@H](Cc1ccccc1)NC(=O)CNC1Cc2ccccc2C1)C(=O)N[C@H](CCCCN)C(=O)N1CCOCC1 [Example 10, (R)—N—((R)-6-amino-1-morpholino-1-oxohexan-2-yl)-2-((R)-2-(2-((2,3-dihydro-1H-inden-2-yl)amino)acetamido)-3-phenylpropanamido)-4-methylpentanamide] (H-[N(Indan-2-yl)Gly][dF][dL][dK]-Morpholide) | > 1 | – | – | – | – | – | –
3 | CCC(CNCC(=O)N[C@H](Cc1ccccc1)C(=O)N[C@H](CC(C)C)C(=O)N[C@H](CCCCN)C(=O)N1CCC(N)(C(=O)O)CC1)c1ccccc1 (stereo partly drawn) [Example 7, 4-amino-1-((2R,5R,8R)-2-(4-aminobutyl)-8-benzyl-5-isobutyl-4,7,10-trioxo-14-phenyl-3,6,9,12-tetraazahexadecan-1-oyl)piperidine-4-carboxylic Acid] | 0.003 | – | – | – | – | – | –
4 | CC(C)C[C@@H](NC(=O)[C@@H](Cc1ccccc1)NC(=O)CNC[C@@H](c1ccccc1)C(C)C)C(=O)N[C@H](CCCCN)C(=O)N1CCC(N)(C(=O)O)CC1 [Example 4, 4-amino-1-((2R,5R,8R,14R)-2-(4-aminobutyl)-8-benzyl-5-isobutyl-15-methyl-4,7,10-trioxo-14-phenyl-3,6,9,12-tetraazahexadecan-1-oyl)piperidine-4-carboxylic Acid] | 0.009 | – | – | – | – | – | –
5 | CC(C)C[C@@H](NC(=O)[C@@H](Cc1ccccc1)NC(=O)CNCC1(c2ccccc2)CC1)C(=O)N[C@H](CCCCN)C(=O)N1CCC(N)(C(=O)O)CC1 [Example 1, 4-amino-1-((6R,9R,12R)-12-(4-aminobutyl)-6-benzyl-9-isobutyl-4,7,10-trioxo-1-(1-phenylcyclopropyl)-2,5,8,11-tetraazatridecan-13-oyl)piperidine-4-carboxylic acid] | 0.056 | – | – | – | – | – | –
6 | CC(C)C[C@@H](NC(=O)[C@@H](Cc1ccccc1)NC(=O)CNC[C@H](C)c1ccccc1)C(=O)N[C@H](CCCCN)C(=O)N1CCC(N)(C(=O)O)CC1 [Example 5, 4-amino-1-((2R,5R,8R,14R)-2-(4-aminobutyl)-8-benzyl-5-isobutyl-4,7,10-trioxo-14-phenyl-3,6,9,12-tetraazapentadecan-1-oyl)piperidine-4-carboxylic Acid] | 0.001 | 0.41 ± 0.112 | 1700 ± 363 | 10.1 ± 1.8 | 28.1 ± 5.52 | 33.4 ± 7.44 | increase of threshold of tenderness compared with the model group ([3]; 0.1 mg/kg i.v. once): 79.5%; threshold of tenderness ([3]; 0.1 mg/kg i.v. once): 13.7 g; increase of threshold of tenderness compared with the model group ([3]; 0.3 mg/kg i.v. once): 204.5%; threshold of tenderness ([3]; 0.3 mg/kg i.v. once): 23.2 g; Vd ([4]; read-out: Apparent Distribution Volume Vz): 0.296 ± 0.019 L/kg; AUC ([4]; read-out: Area Under Curve AUC): 1980 ± 165 ng·h/mL; clearance ([4]; read-out: Clearance CL): 2.54 ± 0.21 mL/min/kg; half-life ([4]; read-out: Half-Life t1/2 (converted)): 80.4 ± 2.4 min; MRT ([4]; read-out: Mean Residence Time MRT): 1.43 ± 0.08 h
7 | CC(C)C[C@@H](NC(=O)[C@@H](Cc1ccccc1)NC(=O)CNC[C@@H](C)c1ccccc1)C(=O)N[C@H](CCCCN)C(=O)N1CCC(N)(C(=O)O)CC1 [Example 2, 4-amino-1-((2R,5R,8R,14S)-2-(4-aminobutyl)-8-benzyl-5-isobutyl-4,7,10-trioxo-14-phenyl-3,6,9,12-tetraazapentadecan-1-oyl)piperidine-4-carboxylic acid] | 0.015 | 0.28 ± 0.046 | 2560 ± 427 | 6.66 ± 1.28 | 29.3 ± 1.56 | 31.5 ± 5.94 | –
8 | CC(C)C[C@@H](NC(=O)[C@@H](Cc1ccccc1)NC(=O)CNCCc1ccccc1)C(=O)N[C@H](CCCCN)C(=O)N1CCC(N)(C(=O)O)CC1 [Example 8, 4-amino-1-((2R,5R,8R)-2-(4-aminobutyl)-8-benzyl-5-isobutyl-4,7,10-trioxo-14-phenyl-3,6,9,12-tetraazatetradecan-1-oyl)piperidine-4-carboxylic Acid] (H-[Gly(NCH2CH2Ph)][dF][dL][dK]-{Piperidin1yl(4-NH2,4-COOH)}) | 0.013 | 0.499 ± 0.111 | 1520 ± 436 | 11.6 ± 3.3 | 30.1 ± 2.28 | 34 ± 6.72 | –
9 | CC(C)C[C@@H](NC(=O)[C@@H](Cc1ccccc1)NC(=O)CNCC(C)(C)c1ccccc1)C(=O)N[C@H](CCCCN)C(=O)N1CCC(N)(C(=O)O)CC1 [Example 3, 4-amino-1-((2R,5R,8R)-2-(4-aminobutyl)-8-benzyl-5-isobutyl-14-methyl-4,7,10-trioxo-14-phenyl-3,6,9,12-tetraazapentadecan-1-oyl)piperidine-4-carboxylic Acid] | 0.004 | – | – | – | – | – | –
